Measurements from patent publication US20230324392A1, “METHODS AND COMPOSITIONS FOR TARGETING CYTOSOLIC DSDNA SIGNALING IN CHROMOSOMALLY UNSTABLE CANCERS” (MEMORIAL SLOAN KETTERING CANCER CENTER, priority 2020, published 2023).
“And” between values parts separate entries of the source, which are not always exact repeats. Equal values may be shown once.

Key:
[1] = target: T1, murine STING isoform (Mus musculus, UniProt Q3TBT3); test: Immunoblots of phosphorylated p65, RelB and IRF3 in C-176 treated tumor cells; format: cell-based
T1 construct: endogenous in cells
T1 sequence (Q3TBT3 1-378): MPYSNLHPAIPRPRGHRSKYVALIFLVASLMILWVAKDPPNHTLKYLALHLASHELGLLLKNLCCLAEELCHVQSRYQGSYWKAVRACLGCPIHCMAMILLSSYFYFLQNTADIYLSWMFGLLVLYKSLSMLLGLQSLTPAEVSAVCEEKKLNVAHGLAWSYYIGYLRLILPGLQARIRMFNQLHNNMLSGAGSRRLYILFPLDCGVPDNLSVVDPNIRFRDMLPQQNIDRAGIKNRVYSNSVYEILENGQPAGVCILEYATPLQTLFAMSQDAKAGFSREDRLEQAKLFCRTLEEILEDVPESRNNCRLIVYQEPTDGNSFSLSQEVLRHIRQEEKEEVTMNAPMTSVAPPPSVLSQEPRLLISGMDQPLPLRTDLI
Protocol: Immunoblotting: Cells were pelleted and lysed using RIPA buffer. Protein concentration was determined using BCA protein assay and 20-30 μg total protein were loaded in each lane. Proteins were separated by gradient SDS-PAGE and transferred to PVDF or nitrocellulose membranes. See Table 2 for antibody information. Membranes were imaged using the LI-COR Odyssey software. Relative STING protein levels were quantified by measuring band intensities on immunoblots using Image J software, background was subtracted and normalized to loading control. […] Cells were washed with ice-cold PBS and harvested using radio-immunoprecipitation assay (RIPA) lysis buffer containing protease and phosphatase inhibitors (Roche, Basel, Switzerland). Cells were lysed with a probe sonicator for 20 s. Protein quantification was performed using Pierce™ Rapid Gold BCA Protein Assay Kit (Thermo Fisher Scientific, Waltham, MA). Proteins were reduced at 95° C. for 5 mins with NuPAGE™ LDS Sample Buffer (4×) containing NuPAGE™ Sample Reducing Agent (10×). Lysates (40 μg protein/well) were resolved on NuPAGE™ 4-12% Bis-Tris Protein Gels (Invitro-gen) and transferred to polyvinylidene difluoride (PVDF) membranes (Thermo Fisher Scientific, Waltham, MA) using a wet transfer system. […] Images were captured by ChemiDoc Imaging Systems (Bio-Rad, UK) and densitometries were determined by ImageJ.

[2] = tested on: 4T1 primary tumor; test: Orthotopically transplanted primary 4T1 tumors, tumor size; format: in vivo, mouse; conditions: orthotopic, vs vehicle
Protocol: Animal metastasis studies: Animal experiments were performed in accordance with protocols approved by the MSKCC Institutional Animal Care and Use Committee. […] There was no need to randomize animals. Investigators were not blinded to group allocation. For tail vein injections, 5×10^4 4T1, 2.5×10^4 B16F10, or 10^5 CT26 cells were injected into the tail vein of 6-7-week old BALB/c (4T1 and CT26) or C57BL/6 (B16F10) mice. Metastasis was primarily assessed through overall survival. Overall survival endpoint was met when the mice died or met the criteria for euthanasia under the IACUC protocol. […] Surface lung metastases were assessed at endpoint by direct visual examination after euthanasia at which points lungs were perfused and fixed in 4% paraformaldehyde (4T1 and B16F10 experiments) or stained using India-ink (CT26 experiments). Furthermore, lung metastasis after injection of 4T1 cells was qualitatively assessed using routine hematoxylin and eosin (H&E) staining. […] Primary tumors were surgically excised on day 7 after implantation and metastatic dissemination was assessed by monitoring overall survival or on day 30 through quantification of surface lung metastases upon euthanasia. The length (L) and width (W) of the primary tumors were measured using calipers. Tumor size was calculated according to the following formula: L*W2/2. […]

[3] = Tolerability of prolonged daily C-176 treatment, survival and necropsy; format: in vivo, mouse
Source text: In B16F10-bearing animals, nearly 30% of the treated group had no evidence of disease at 98 days (FIG. 4A). […] Thus, the therapeutic effect of the STING inhibitors on metastasis is primarily mediated through inhibition of cancer cell-intrinsic STING.

[4] = Blood counts of mice treated with C-176; format: in vivo, mouse; conditions: for NEUT: reference range 9.86-39.11; for LYMPH: reference range 48.81-83.82
[5] = tested on: B16F10 cells; conditions: 1 μM C-176, 48 hours
Protocol: RNA was extracted using the RNeasy Mini Kit (Qiagen, Hilden, Germany, 74104). Non-strand-specific paired end sequencing libraries were generated with TruSeq Stranded mRNA (Illumina, San Diego, CA, 20020594) and sequenced on the Illumina NovaSeq platform. Reads were mapped to the mouse reference GRCm38 with the Broad Picard Pipeline (broadinstitute.github.io/picard/). […] Differential analysis was performed by DESeq2 (v1.24.0) as described by Love, M. I., et al., Genome Biol. 15: 550 (2014), the totality of which is incorporated herein by reference. Gene set enrichment analysis was performed on the normalized reads estimated by DESeq2.

[6] = automated differential, animals 1, 2
[7] = complete blood count, animals 1, 2
[8] = manual differential, animals 1, 2

Which “phosphorylated pools of the NF-κB transcription factors p65 and RelB” value ([1]; baseline, B16F10, 4T1, CT26 cells) does the source give for `O=C(Nc1ccc(I)cc1)c1ccc([N+](=O)[O-])o1` [C-176] here?
Its value is “significant reductions”.

And the IRF3 phosphorylation ([1]; upon transfection of 20 μg/ml cGAMP)?
Its IRF3 phosphorylation is “suppressed”.

What about the “4T1 primary tumor size” value [2] of the same compound?
The value was “did not have a significant impact”.

What about the end-of-treatment necropsy ([3]; compared to vehicle-treated animals) of the same compound?
Its end-of-treatment necropsy is “no distinct pathologic abnormalities”.

And the “tolerability / clinically evident toxicity” value ([3]; prolonged daily treatment, vs vehicle-treated animals)?
Its value is “well tolerated and did not lead to any clinically evident toxicity”.

And the “blood counts and blood chemistries” value ([3]; summary of Tables 9 and 10)?
Its value is “within normal limits”.

And the baseline cortisol levels ([3]; vs vehicle)?
Its baseline cortisol levels is “lower baseline cortisol levels”.

And the BASO ([4]; automated differential, animals 1, 2, reference range 0.00-1.84)?
Its BASO is 0% and 0.1%.

And the “EO#” value ([4]; automated differential, animals 1, 2, reference range 0.01-0.49)?
The value was 0.1 K/uL and 0.16 K/uL.

What about the “MONO#” value ([4]; automated differential, animals 1, 2, reference range 0.21-1.37) of the same compound?
Its value is 0.22 K/uL and 0.25 K/uL.

What about the “NEUT#” value ([4]; automated differential, animals 1, 2, reference range 0.58-3.83) of the same compound?
The value was 2.98 K/uL and 4.69 K/uL.

And the “LYMPH#” value ([4]; automated differential, animals 1, 2, reference range 2.22-11.56)?
Its value is 3.35 K/uL and 3.14 K/uL.

What about the MONO ([4]; automated differential, animals 1, 2, reference range 3.29-14.33) of the same compound?
The MONO was 3.3% and 3%.

And the “WBC#” value ([4]; automated differential, animals 1, 2, reference range 3.48-14.84)?
The value was 6.65 K/uL and 8.25 K/uL.

What about the NEUT [4, 6] of the same compound?
The NEUT was 44.8% and 56.9%.

And the LYMPH [4, 6]?
The LYMPH was 50.4% and 38.1%.

What about the EO ([4]; automated differential, animals 1, 2, reference range printed 7 0.07-4.91^) of the same compound?
The EO was 1.5% and 1.9%.

And the PDW [4, 7]?
Its PDW is 9.9 fL and 10.3 fL.

And the RDW-SD [4, 7]?
Its RDW-SD is 29.1 fL and 29.6 fL.

What about the RET ([4]; complete blood count, animals 1, 2, reference range 2.56-4.56) of the same compound?
Its RET is 4.04% and 5.29%.

And the MPV ([4]; complete blood count, animals 1, 2, reference range 4.6-5.9)?
Its MPV is 7 fL and 7.3 fL.

And the RBC ([4]; complete blood count, animals 1, 2, reference range 6.93-12.24)?
Its RBC is 10.18 M/uL and 9.5 M/uL.

What about the HGB ([4]; complete blood count, animals 1, 2, reference range 12.4-20.5) of the same compound?
Its HGB is 15.3 g/dL and 14.4 g/dL.

And the MCH ([4]; complete blood count, animals 1, 2, reference range 13.0-17.6)?
Its MCH is 15 pg and 15.2 pg.

And the RDW-CV ([4]; complete blood count, animals 1, 2, reference range 16.9-23.5)?
Its RDW-CV is 25.4% and 24%.

What about the MCHC ([4]; complete blood count, animals 1, 2, reference range 23.3-33.1) of the same compound?
Its MCHC is 32.3 g/dL and 31.9 g/dL.

And the HCT ([4]; complete blood count, animals 1, 2, reference range 42.1-68.3)?
Its HCT is 47.3% and 45.2%.

What about the MCV ([4]; complete blood count, animals 1, 2, reference range 50.7-64.4) of the same compound?
The MCV was 46.5 fL and 47.6 fL.

What about the “RET#” value ([4]; complete blood count, animals 1, 2, reference range 294-444) of the same compound?
The value was 411.3 K/uL and 502.6 K/uL.

What about the PLT ([4]; complete blood count, animals 1, 2, reference range 420-1698) of the same compound?
The PLT was 1137 K/uL and 1026 K/uL.

What about the BAND ([4]; manual differential, animal 1) of the same compound?
The BAND was 1%.

What about the EO ([4]; manual differential, animals 1, 2, reference range 0.07-4.91) of the same compound?
Its EO is 2% and 1%.

And the NEUT [4, 8]?
The NEUT was 45% and 57%.

And the LYMPH [4, 8]?
Its LYMPH is 52% and 42%.

And the “baseline expression of inflammation-related genes (Ccl5, Cxcl10, Isg15)” value [5]?
The value was “significant reductions”.

What about the “expression of STING-dependent genes” value [5] of the same compound?
Its value is “significantly reduced”.

What about the “gene set enrichment analysis (GSEA) pathways” value [5] of the same compound?
Its value is “downregulation of pathways related to inflammation and of genes involved in the epithelial-to-mesenchymal transition (EMT)”.
